From paper PMC11305403, “Design, synthesis, and antiproliferative screening of new quinoline derivatives bearing a cis-vinyl triamide motif as apoptosis activators and EGFR-TK inhibitors” (RSC Advances, 2024)

Columns and labels:
[1] = test system: MCF-7 cell line; assay: MTT cytotoxic / antiproliferative activity against MCF-7 cell line; type: cell-based; details: for IC50: MTT assay, MCF-7 breast adenocarcinoma cells, 24 h treatment; for fold more potent antiproliferative activity than the reference STU: MCF-7, relative to STU IC50
Protocol: S4.2.1. Cytotoxic activity evaluation […]
adenocarcinoma (MCF-7) cell line. Cell viability assay was assessed using MTT assay […]
under 5% CO2. After incubation, the cells were treated with different concentrations of the test hybrid 5 and 6a-h and incubated for 24 h, then 20 µl of MTT solution at 5 […]
Dimethyl sulphoxide (DMSO) in […]
volume of 100 µl was added to each well to dissolve the purple formazan that had formed. The color intensity of the formazan product, which represents the growth […]
570 nm absorbance. The experimental conditions were carried out with at least three replicates, and the experiments were repeated at least three times. […]

[2] = test system: MCF-7 cells; assay: Cell cycle analysis by flow cytometry (PI staining) in MCF-7 cells; type: cell-based; details: MCF-7, 1.87 μM, 48 h
Description: The cell cycle is related to a series of events responsible for cell division and duplication.[42] The cell cycle presents three distinct phases: G1, S and G2/M phase.[43] Due to the importance of the cell cycle in the process of tumor progression, we evaluated if the cell growth inhibition in MCF-7 occurred due to cell cycle arrest using FACS method. In the present study, flow cytometric measurement was utilized to investigate the effect of quinoline tethered [2-(4-methoxyphenyl)-cis-vinyl] triamide 6f on cellular cycle progression in tested breast cancer cells. In the test, MCF-7 cells were treated with quinoline tethered [2-(4-methoxyphenyl)-cis-vinyl] triamide 6f at a concentration of 1.87 μM, then incubated for 48 h. The cellular cycle distribution was analyzed to identify the definite phase at which quinoline tethered [2-(4-methoxyphenyl)-cis-vinyl] triamide 6f can arrest the cell cycle. […] It is observed that the percentage of cells at G1 phase was increased by 1.2-fold compared to controls (Fig. 3).
S4.2.1. Cytotoxic activity evaluation
To measure the cytotoxic actvity of the prepared derivatives 5 and 6a-h in breast adenocarcinoma (MCF-7) cell line. Cell viability assay was assessed using MTT assay method. Cells at density of 1 x 104 were seeded in a 96-well plate at 37 °C for 24 h under 5% CO2. After incubation, the cells were treated with different concentrations of the test hybrid 5 and 6a-h and incubated for 24 h, then 20 µl of MTT solution at 5 mg/mL was applied and incubated for 4 h at 37 °C. […] The color intensity of the formazan product, which represents the growth condition of the cells, is quantified by using an ELISA plate reader (EXL 800, USA) at 570 nm absorbance. […]
Cell cycle analysis in MCF-7 cells was investigated using fluorescent […] (BioVision EZCellTM Cell Cycle Analysis Kit Catalog #K920) by flow cytometry assay. […] The samples were immediately analyzed using Facs Calibur flow cytometer (Becton and Dickinson, Heidelberg, […]

[3] = target: T1, EGFR tyrosine kinase (Homo sapiens, UniProt P00533); assay: EGFR kinase assay (BPS Bioscience EGFR Kinase Assay Kit); type: biochemical; details: read-out: EGFR inhibitory activity IC50
T1 construct: purchased BPS Bioscience 40321
Description: immediately analyzed using FACS Calibur flow cytometer (Becton and Dickinson,
S4.2.4. EGFR kinase Assay
(1 picture or pasted object on this page, not shown here)

[4] = test system: MCF-7 cells; assay: Annexin V-FITC/PI apoptosis assay by flow cytometry in MCF-7 cells; type: cell-based; details: 48 h
Protocol: Apoptosis play an important role in organogenesis and in crafting complex tissues during embryonic growth, and in the preservation of tissue homeostasis in adult organism.[44] Numerous clinical disorders, including cancer, autoimmune illness and infectious diseases, are characterised by the deregulation of apoptosis.[45] To ensure the ability of quinoline tethered [2-(4-methoxyphenyl)-cis-vinyl] triamide 6f to activate apoptosis, flow cytometric measurement was carried out using Annexin V which binds to phophatidylserine declared on the outer layed of apoptotic cells and appears fluorescent green and PI which stains DNA and penetrates only dead cells. […] Meanwhile, the proportion of late apoptotic cells rose from 0.21% to 16.65% compared to DMOS controls (Fig. 4). […]
S4.2.3. Apoptosis assay for compound 6f
Apoptosis in MCF-7 cells was investigated using fluorescent Annexin V-FITC/ PI detection kit (BioVision Annexin V-FITC Apoptosis Detection Kit, Catalog #: K101) by flow cytometry assay. MCF-7 cells at a density of 2 × 10^5 per well were treated with compound 6f at the IC50 (µM) for 48 h, then the cells were harvested and stained with Annexin V-FITC/ PI dye for 15 min in the dark at 37 °C. The samples were immediately analyzed using FACS Calibur flow cytometer (Becton and Dickinson, […]
S4.2.4. EGFR kinase Assay […]
according to manufacturer’s instructions using # BPS Bioscience EGFR Kinase Assay

[5] = test system: MCF-7 cells; assay: Mitochondrial membrane potential (MMP) by flow cytometry in MCF-7 cells; type: cell-based
Description: A major part of apoptosis process is played by mitochondria.[46] Several active proteins such as cytochrome C and factor that induces apoptosis are two of the active proteins found in mitochondria.[47] The release of such proteins after inhibition of mitochondrial membrane potential (MMP) is crucial in the propagation of apoptosis.[48] […] This decrease in MMP was linked to an increase in Annexin V positive cells. […] According to this, quinoline tethered [2-(4-methoxyphenyl)-cis-vinyl] triamide 6f cause MCF-7 cells to become dysfunction in their mitochondria, which in turn trigger apoptotic cellular death. These outcomes were consistent with early findings that EGFR-TK inhibitors promote apoptosis via the mitochondrial route.

T1 sequence (P00533 25-1210): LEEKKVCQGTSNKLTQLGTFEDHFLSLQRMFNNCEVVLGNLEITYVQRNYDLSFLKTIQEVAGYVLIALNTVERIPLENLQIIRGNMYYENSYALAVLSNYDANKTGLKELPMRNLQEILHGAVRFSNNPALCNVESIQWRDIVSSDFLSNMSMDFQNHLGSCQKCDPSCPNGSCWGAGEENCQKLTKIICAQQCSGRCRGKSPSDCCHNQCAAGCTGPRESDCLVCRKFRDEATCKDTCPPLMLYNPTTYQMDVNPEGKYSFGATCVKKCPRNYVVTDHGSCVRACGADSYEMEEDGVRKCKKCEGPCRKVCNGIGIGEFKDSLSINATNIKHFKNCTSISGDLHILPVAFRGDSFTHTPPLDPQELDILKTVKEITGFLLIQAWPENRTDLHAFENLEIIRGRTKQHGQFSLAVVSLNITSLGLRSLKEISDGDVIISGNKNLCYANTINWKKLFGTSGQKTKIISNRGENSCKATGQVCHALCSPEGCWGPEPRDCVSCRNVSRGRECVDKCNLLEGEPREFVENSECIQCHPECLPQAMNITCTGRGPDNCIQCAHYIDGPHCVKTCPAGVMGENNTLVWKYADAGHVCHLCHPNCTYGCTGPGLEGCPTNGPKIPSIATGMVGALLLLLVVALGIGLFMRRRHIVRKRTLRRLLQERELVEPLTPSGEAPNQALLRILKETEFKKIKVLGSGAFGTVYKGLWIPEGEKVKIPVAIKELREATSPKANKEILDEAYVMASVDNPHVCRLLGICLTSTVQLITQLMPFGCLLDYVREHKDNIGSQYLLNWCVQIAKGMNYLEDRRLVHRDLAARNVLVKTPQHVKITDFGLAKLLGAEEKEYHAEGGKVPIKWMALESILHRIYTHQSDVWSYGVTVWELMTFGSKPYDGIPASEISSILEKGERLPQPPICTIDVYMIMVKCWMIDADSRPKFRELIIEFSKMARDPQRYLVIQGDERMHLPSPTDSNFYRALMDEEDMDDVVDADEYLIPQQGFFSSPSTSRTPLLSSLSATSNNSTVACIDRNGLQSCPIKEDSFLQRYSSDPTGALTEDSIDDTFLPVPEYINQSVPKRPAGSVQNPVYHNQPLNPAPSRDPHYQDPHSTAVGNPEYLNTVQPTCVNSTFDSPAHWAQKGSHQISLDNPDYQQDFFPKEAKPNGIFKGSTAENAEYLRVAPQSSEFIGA

Compound | melting point [°C] | IC50 ([1]; Homo sapiens, MCF7, 24 h) [µM] | fold more potent antiproliferative activity than the reference STU [1] | other results
O=C(NNC(=O)c1cc(-c2ccc(Br)cc2)nc2ccccc12)/C(=C/c1ccc(Br)cc1)NC(=O)c1ccccc1 [Compound 6c, (Z)-N-(1-(4-Bromophenyl)-3-(2-(2-(4-bromophenyl)quinoline-4-carbonyl)hydrazinyl)-3-oxoprop-1-en-2-yl)benzamide] | 191 to 193 | 19.2 ± 0.62 | – | –
COc1ccc(/C=C(\NC(=O)c2ccccc2)C(=O)NNC(=O)c2cc(-c3ccc(Br)cc3)nc3ccccc23)cc1 [Compound 6f, (Z)-N-(3-(2-(2-(4-Bromophenyl)quinoline-4-carbonyl)hydrazinyl)-1-(4-methoxyphenyl)-3-oxoprop-1-en-2-yl)benzamide] | – | 1.88 | 1.06–7.10 fold | fold increase of percentage of cells at G1 phase compared to controls [2]: 1.2 fold; percentage of cells at G2/M phase (%DIP G2/M) ([2]; control 14.04%): 7.12%; percentage of cells at S phase (%DIP S) ([2]; control 34.30%): 29.32%; IC50 [3]: 0.19 µM; percentage of primary (early) apoptotic cells ([4]; MCF-7, 1.87 μM (IC50), lower right quadrant, DMSO control 0.66%): 9.52%; proportion of late apoptotic cells ([4]; MCF-7, 1.87 μM (IC50), upper right quadrant, DMSO control 0.21%): 16.65%; fold increase of early apoptosis compared to controls ([4]; MCF-7, 1.87 μM): ~14.4 fold; fold increase of late apoptosis compared to controls ([4]; MCF-7, 1.87 μM): ~79.3 fold; IC50 [1]: 1.87 ± 0.06 µM; decrease of MMP of MCF-7 cells compared to controls (percentage change value) ([5]; MCF-7, 1.87 μM (IC50 dose), vs DMSO controls): 57.93%; MMPΨ / MCF-7 (flow cytometry reading) ([5]; MCF-7, 1.87 μM, control 58497): 24610
O=C(NNC(=O)c1cc(-c2ccc(Br)cc2)nc2ccccc12)/C(=C/c1ccc(Cl)cc1)NC(=O)c1ccccc1 [Compound 6b, (Z)-N-(3-(2-(2-(4-Bromophenyl)quinoline-4-carbonyl)hydrazinyl)-1-(4-chlorophenyl)-3-oxoprop-1-en-2-yl)benzamide] | 185 to 187 | 8.29 ± 0.27 | 1.06–7.10 fold | –
O=C(NNC(=O)c1cc(-c2ccc(Br)cc2)nc2ccccc12)/C(=C/c1ccc(F)cc1)NC(=O)c1ccccc1 [Compound 6a, (Z)-N-(3-(2-(2-(4-Bromophenyl)quinoline-4-carbonyl)hydrazinyl)-1-(4-fluorophenyl)-3-oxoprop-1-en-2-yl)benzamide] | 177 to 179 | 59.8 ± 1.93 | – | –
O=C(NNC(=O)c1cc(-c2ccc(Br)cc2)nc2ccccc12)/C(=C/c1ccco1)NC(=O)c1ccccc1 [Compound 5, (Z)-N-(3-(2-(2-(4-Bromophenyl)quinoline-4-carbonyl)hydrazinyl)-1-(furan-2-yl)-3-oxoprop-1-en-2-yl)benzamide] | 188 to 190 | 6.6 ± 0.21 | 1.06–7.10 fold | –
Cc1ccc(/C=C(\NC(=O)c2ccccc2)C(=O)NNC(=O)c2cc(-c3ccc(Br)cc3)nc3ccccc23)cc1 [Compound 6e, (Z)-N-(3-(2-(2-(4-Bromophenyl)quinoline-4-carbonyl)hydrazinyl)-3-oxo-1-p-tolylprop-1-en-2-yl)benzamide] | 211 to 213 | 1.87 | 1.06–7.10 fold | IC50 [1]: 3.03 ± 0.1 µM
O=C(NNC(=O)c1cc(-c2ccc(Br)cc2)nc2ccccc12)/C(=C/c1ccc([N+](=O)[O-])cc1)NC(=O)c1ccccc1 [Compound 6d, (Z)-N-(3-(2-(2-(4-Bromophenyl)quinoline-4-carbonyl)hydrazinyl)-1-(4-nitrophenyl)-3-oxoprop-1-en-2-yl)benzamide] | 207 to 209 | 12.4 ± 0.4 | 1.06–7.10 fold | –

Further lines, with some results ahead:

melting point [°C] | Compound | IC50 ([1]; Homo sapiens, MCF7, 24 h) [µM] | fold more potent antiproliferative activity than the reference STU [1] | other results
169 to 171 | COc1cc(/C=C(\NC(=O)c2ccccc2)C(=O)NNC(=O)c2cc(-c3ccc(Br)cc3)nc3ccccc23)cc(OC)c1OC [Compound 6h, (Z)-N-(3-(2-(2-(4-Bromophenyl)quinoline-4-carbonyl)hydrazinyl)-3-oxo-1-(3,4,5-trimethoxyphenyl)prop-1-en-2-yl)benzamide] | 15.6 ± 0.42 | – | –
181 to 183 | CC(=O)Oc1c(Br)cc(/C=C(\NC(=O)c2ccccc2)C(=O)NNC(=O)c2cc(-c3ccc(Br)cc3)nc3ccccc23)cc1Br [Compound 6g, (Z)-4-(2-Benzamido-3-(2-(2-(4-bromophenyl)quinoline-4-carbonyl)hydrazinyl)-3-oxoprop-1-enyl)-2,6-dibromophenyl acetate] | 30.4 ± 0.98 | – | –
